What was measured:
[1] = target: α3(2)β4(2)α5 (β4–6–α3 concatamer + α5) (Homo sapiens, UniProt P30926+P32297); assay: two-electrode voltage clamp, Xenopus oocytes; type: cell-based
rat α3β4 = rat α3β4 (Rattus norvegicus, UniProt P04757+P12392); assay: two-electrode voltage clamp, Xenopus oocytes; type: cell-based
rat α3β4, sequence (P04757 26-499): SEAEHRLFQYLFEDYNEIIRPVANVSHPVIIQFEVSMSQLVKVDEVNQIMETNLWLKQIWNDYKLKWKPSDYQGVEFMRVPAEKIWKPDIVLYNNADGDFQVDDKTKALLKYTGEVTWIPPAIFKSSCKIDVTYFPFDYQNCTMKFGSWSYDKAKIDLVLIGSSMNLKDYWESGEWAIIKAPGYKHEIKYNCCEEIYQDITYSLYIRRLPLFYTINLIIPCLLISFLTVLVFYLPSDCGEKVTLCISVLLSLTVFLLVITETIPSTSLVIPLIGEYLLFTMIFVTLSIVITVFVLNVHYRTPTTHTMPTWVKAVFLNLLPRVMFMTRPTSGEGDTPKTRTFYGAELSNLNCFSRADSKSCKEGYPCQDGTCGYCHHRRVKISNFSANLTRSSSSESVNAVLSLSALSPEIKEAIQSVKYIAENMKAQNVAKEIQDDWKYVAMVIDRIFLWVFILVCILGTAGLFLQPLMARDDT
rat α3β4, sequence (P12392 21-495): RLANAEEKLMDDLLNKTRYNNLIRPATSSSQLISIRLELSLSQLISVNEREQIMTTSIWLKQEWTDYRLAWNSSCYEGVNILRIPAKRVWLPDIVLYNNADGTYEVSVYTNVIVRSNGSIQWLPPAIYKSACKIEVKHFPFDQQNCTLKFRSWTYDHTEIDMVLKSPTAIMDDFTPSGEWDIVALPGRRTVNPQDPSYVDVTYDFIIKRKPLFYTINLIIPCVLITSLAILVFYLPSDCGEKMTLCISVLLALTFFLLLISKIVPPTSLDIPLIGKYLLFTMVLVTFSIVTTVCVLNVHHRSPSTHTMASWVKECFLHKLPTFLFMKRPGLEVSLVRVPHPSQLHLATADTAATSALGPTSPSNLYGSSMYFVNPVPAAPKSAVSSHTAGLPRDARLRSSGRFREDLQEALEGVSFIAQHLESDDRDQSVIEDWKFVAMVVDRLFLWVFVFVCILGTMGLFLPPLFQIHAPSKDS

α3(2)β4(2)α5 (β4–6–α3 concatamer + α5), sequence (P32297 32-505): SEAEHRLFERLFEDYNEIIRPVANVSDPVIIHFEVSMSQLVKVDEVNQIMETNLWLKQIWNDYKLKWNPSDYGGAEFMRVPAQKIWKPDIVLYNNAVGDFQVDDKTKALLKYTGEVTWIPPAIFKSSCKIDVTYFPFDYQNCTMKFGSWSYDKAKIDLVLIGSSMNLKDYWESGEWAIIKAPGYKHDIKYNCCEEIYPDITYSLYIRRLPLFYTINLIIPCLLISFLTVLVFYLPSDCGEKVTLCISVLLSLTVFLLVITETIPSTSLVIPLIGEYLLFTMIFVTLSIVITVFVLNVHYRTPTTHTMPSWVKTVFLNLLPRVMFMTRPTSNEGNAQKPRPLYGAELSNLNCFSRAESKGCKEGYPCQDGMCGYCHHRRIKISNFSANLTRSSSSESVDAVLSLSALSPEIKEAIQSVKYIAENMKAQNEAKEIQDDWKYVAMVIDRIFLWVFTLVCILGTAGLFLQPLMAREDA
α3(2)β4(2)α5 (β4–6–α3 concatamer + α5), sequence (P30926 22-498): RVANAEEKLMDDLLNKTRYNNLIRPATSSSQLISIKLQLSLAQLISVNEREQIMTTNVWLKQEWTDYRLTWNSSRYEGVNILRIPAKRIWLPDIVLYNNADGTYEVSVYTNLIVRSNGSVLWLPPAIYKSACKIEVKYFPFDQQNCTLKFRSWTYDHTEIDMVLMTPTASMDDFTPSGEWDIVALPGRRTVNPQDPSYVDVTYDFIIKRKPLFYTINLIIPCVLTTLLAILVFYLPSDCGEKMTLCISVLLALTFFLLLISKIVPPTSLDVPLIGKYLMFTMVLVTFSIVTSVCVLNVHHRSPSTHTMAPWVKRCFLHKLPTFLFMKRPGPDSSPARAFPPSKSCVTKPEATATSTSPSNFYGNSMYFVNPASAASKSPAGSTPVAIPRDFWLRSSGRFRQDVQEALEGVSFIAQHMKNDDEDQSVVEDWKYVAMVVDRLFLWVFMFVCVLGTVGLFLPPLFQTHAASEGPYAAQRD
α3(2)β4(2)α5 (β4–6–α3 concatamer + α5), sequence (P30532 23-468 partner): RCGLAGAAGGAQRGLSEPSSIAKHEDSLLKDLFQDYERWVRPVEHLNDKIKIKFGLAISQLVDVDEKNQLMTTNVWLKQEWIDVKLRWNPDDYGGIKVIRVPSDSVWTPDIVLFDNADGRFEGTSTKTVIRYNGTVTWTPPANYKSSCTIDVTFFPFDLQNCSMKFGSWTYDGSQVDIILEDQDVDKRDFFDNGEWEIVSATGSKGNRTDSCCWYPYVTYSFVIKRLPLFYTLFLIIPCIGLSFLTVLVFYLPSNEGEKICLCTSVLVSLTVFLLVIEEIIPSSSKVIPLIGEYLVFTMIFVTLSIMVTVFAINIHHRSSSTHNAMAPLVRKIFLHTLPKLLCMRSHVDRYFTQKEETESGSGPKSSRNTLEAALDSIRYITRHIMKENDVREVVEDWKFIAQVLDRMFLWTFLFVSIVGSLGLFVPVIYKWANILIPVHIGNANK

Compound | IC50 [1] | EC50 (rat α3β4)
COc1ccc(C=C2CCCN=C2c2cccnc2)c(OC)c1 [GTS-21, 3-(2,4dimethoxybenzylidene)anabaseine] | 9.17 ± 1.08 µM | 
O=c1cccc2n1C[C@@H]1CNC[C@H]2C1 [cytisine] |  | 520 ± 50 µM
c1cnc2cc3c(cc2n1)C1CNCC3C1 [varenicline] |  | 28 ± 3.2 µM
